From PubChem BioAssay (NCI)
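At the GI50, growth is halved. The concentration for full growth arrest is given as TGI.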

Columns and labels:
Experiment in all cases: inhibition of tumour cell growth, NCI panel, 384-well format
[1] = tested on: MALME-3M melanoma
[2] = tested on: SK-MEL-28 melanoma
[3] = tested on: HL-60(TB) leukemia
[4] = tested on: PC-3 prostate
[5] = tested on: ACHN renal
[6] = tested on: SK-MEL-5 melanoma
[7] = tested on: HCC-2998 colon
[8] = tested on: DU-145 prostate
[9] = tested on: HCT-116 colon
[10] = tested on: SW-620 colon
[11] = tested on: NCI-H23 lung
[12] = tested on: OVCAR-5 ovarian
[13] = tested on: SF-539 CNS
[14] = tested on: SF-295 CNS
[15] = tested on: UACC-62 melanoma
[16] = tested on: HOP-92 NSCLC
[17] = tested on: T-47D breast
[18] = tested on: CAKI-1 renal
[19] = tested on: CCRF-CEM leukemia
[20] = tested on: A498 renal
[21] = tested on: LOX IMVI melanoma
[22] = tested on: COLO 205 colon
[23] = tested on: RXF 393 renal
[24] = tested on: M14 melanoma
[25] = tested on: U251 glioblastoma
[26] = tested on: HCT-15 colon
[27] = tested on: UACC-257 melanoma
[28] = tested on: NCI/ADR-RES ovarian
[29] = tested on: TK-10 renal
[30] = tested on: HT29 colon
[31] = tested on: 786-0 renal
[32] = tested on: NCI-H460 NSCLC
[33] = tested on: SR leukemia
[34] = tested on: RPMI-8226 leukemia
[35] = tested on: MDA-MB-435 melanoma
[36] = tested on: OVCAR-3 ovarian
[37] = tested on: KM12 colon
[38] = tested on: IGROV1 ovarian
[39] = tested on: A549 NSCLC
[40] = tested on: HOP-62 NSCLC
[41] = tested on: OVCAR-4 ovarian
[42] = tested on: MOLT-4 leukemia
[43] = tested on: UO-31 renal
[44] = tested on: NCI-H522 lung
[45] = tested on: SK-MEL-2 melanoma
[46] = tested on: SN12C renal
[47] = tested on: MDA-MB-231 breast
[48] = tested on: NCI-H226 lung
[49] = tested on: SF-268 CNS
[50] = tested on: SNB-19 CNS
[51] = tested on: MDA-MB-468 breast
[52] = tested on: K-562 leukemia
[53] = tested on: MCF7 breast
[54] = tested on: OVCAR-8 ovarian
[55] = tested on: NCI-H322M lung

CN[C@@H](C)C(=O)N[C@H]1CN(S(=O)(=O)c2cccc(S(=O)(=O)N3CC[C@H]4CC[C@@H](C(=O)NC(c5ccccc5)c5ccccc5)N4C(=O)[C@@H](NC(=O)[C@H](C)NC)C3)c2)CC[C@H]2CC[C@@H](C(=O)NC(c3ccccc3)c3ccccc3)N2C1=O
GI50 [1]: < 0.01 µM
TGI [1]: 0.0336 µM
GI50 [2]: 12.6 µM
TGI [2]: 25.2 µM
GI50 [3]: < 0.01 µM
TGI [3]: < 0.01 µM
GI50 [4]: 15.5 µM
TGI [4]: 28.9 µM
GI50 [5]: > 100 µM
TGI [5]: > 100 µM
GI50 [6]: 0.11 µM
TGI [6]: 0.422 µM
GI50 [7]: 11.7 µM
TGI [7]: 24 µM
GI50 [8]: 2.3 µM
TGI [8]: 16.7 µM
GI50 [9]: 23.7 µM
TGI [9]: 87.5 µM
GI50 [10]: 37.7 µM
TGI [10]: > 100 µM
GI50 [11]: 0.0315 µM
TGI [11]: 0.459 µM
GI50 [12]: 19.1 µM
TGI [12]: 34.8 µM
GI50 [13]: 16.6 µM
TGI [13]: 30.2 µM
GI50 [14]: 11 µM
TGI [14]: 23.6 µM
GI50 [15]: 13.9 µM
TGI [15]: 27.5 µM
GI50 [16]: 0.242 µM
TGI [16]: 2.69 µM
GI50 [17]: 13.8 µM
TGI [17]: 28 µM
GI50 [18]: > 100 µM
TGI [18]: > 100 µM
GI50 [19]: 0.0133 µM
TGI [19]: 1.46 µM
GI50 [20]: 35.8 µM
TGI [20]: > 100 µM
GI50 [21]: 13 µM
TGI [21]: 25.7 µM
GI50 [22]: 12.5 µM
TGI [22]: 26 µM
GI50 [23]: < 0.01 µM
TGI [23]: 0.073 µM
GI50 [24]: 20.3 µM
TGI [24]: 44.9 µM
GI50 [25]: 12.6 µM
TGI [25]: 25.9 µM
GI50 [26]: > 100 µM
TGI [26]: > 100 µM
GI50 [27]: 11.7 µM
TGI [27]: 24.4 µM
GI50 [28]: 46.1 µM
TGI [28]: > 100 µM
GI50 [29]: 44 µM
TGI [29]: > 100 µM
GI50 [30]: 16 µM
TGI [30]: 35.7 µM
GI50 [31]: 23.5 µM
TGI [31]: 62.8 µM
GI50 [32]: 11.2 µM
TGI [32]: 25.5 µM
GI50 [33]: 0.0253 µM
TGI [33]: 2.82 µM
GI50 [34]: 0.0326 µM
TGI [34]: 1.23 µM
GI50 [35]: 0.0478 µM
TGI [35]: 16.8 µM
GI50 [36]: 2.17 µM
TGI [36]: 17.6 µM
GI50 [37]: 12.4 µM
TGI [37]: 24.9 µM
GI50 [38]: 16.1 µM
TGI [38]: 30.3 µM
GI50 [39]: 46.6 µM
TGI [39]: > 100 µM
GI50 [40]: 0.57 µM
TGI [40]: 4.56 µM
GI50 [41]: < 0.01 µM
TGI [41]: < 0.01 µM
GI50 [42]: 6.56 µM
TGI [42]: 18.6 µM
GI50 [43]: 76 µM
TGI [43]: > 100 µM
GI50 [44]: 0.0634 µM
TGI [44]: 2.93 µM
GI50 [45]: < 0.01 µM
TGI [45]: < 0.01 µM
GI50 [46]: 20.8 µM
TGI [46]: 37.3 µM
GI50 [47]: < 0.01 µM
TGI [47]: < 0.01 µM
GI50 [48]: 17.4 µM
TGI [48]: 47.7 µM
GI50 [49]: 13.2 µM
TGI [49]: 26 µM
GI50 [50]: 16.6 µM
TGI [50]: 30.2 µM
GI50 [51]: < 0.01 µM
TGI [51]: 0.0196 µM
GI50 [52]: 4.42 µM
TGI [52]: 22.4 µM
GI50 [53]: 1.84 µM
TGI [53]: 5.7 µM
GI50 [54]: 2.24 µM
TGI [54]: 19.3 µM
GI50 [55]: 16.6 µM
TGI [55]: 30.3 µM
